According to patent EP0845210A1, “New herbicidal compositions” (RHONE-POULENC AGRICULTURE LTD., priority 1994, dated 1996):

Legend:
Echinochloa crus-galli = assay: Procedure A: pre-emergence glasshouse pot test, growth reduction assessed two weeks after treatment; type: in vivo
Description: Seed of the various species of broad-leaf or grass weeds were sown in unsterilised clay loam soil in 7 centimetre by 7 centimetre plastic plant pots. The pots were watered and allowed to drain. The soil surface was then sprayed with ranges of concentrations of either the individual herbicide or mixtures of two herbicides in various proportions, dissolved in a 50:50 by volume solution of acetone and water, using a track sprayer set to deliver the equivalent of 290 l/ha. All herbicides were used as unformulated technical materials except dimethenamid, which was used as the commercial formulation "Frontiere" (trade mark), a flowable containing 900g/l active ingredient; and alachlor, which was used as "Lasso" (trade mark), an emulsifiable concentrate formulation containing 480g/l active ingredient.
Treated pots were placed at random in four replicate blocks per treatment for each plant species. The pots were held, in a glasshouse, standing on moist capillary matting, under lights and with overhead watering twice daily.
Two weeks after treatment the percent reduction in plant growth, compared to an untreated control, was assessed.
Mean percent reduction in plant growth was calculated for each treatment. Dose/mean response was plotted on Log concentration/Probability graph paper, and lines fitted by eye. For herbicide mixtures a dose/response line for the first herbicide was drawn for each dose rate of the second herbicide and a dose/response line for the second herbicide was drawn for each dose rate of the first herbicide. The doses representing a 90% reduction in plant growth (LD90's) were read from these lines and plotted on graphs whose axes were dose rates of the two herbicides. The line joining these points is an Isobole i.e. a line joining points (mixtures) of equal activity, as described by P.M.L. Tammes, Neth. J. Plant Path. 70 (1964) : 73-80. A line was also drawn joining the LD90's of the individual components of the mixture. This line represents the theoretical isobole if the effect of the two components is additive i.e. there is no interaction between them. Isoboles falling below this line indicate synergy between the components while lines lying above it indicate antagonism.
In the tables that follow 'dose' represents the dose rate in grammes per hectare of the active ingredient used; and the figures for the weed control are percentages reduction in growth when compared with the untreated controls.

maize (Zea mays) = assay: Procedure D: pre-emergence field trial (Volga, Brookings), crop phytotoxicity about 26 days after treatment; type: in vivo; details: A 37.5 g/ha alone
Experimental: The following experiments were carried out pre-emergence of the weed species. Compound A, formulated as a wettable dispersible granule as described in Example 1 herebelow (750g per kilogram) and each acetochlor (used as the commercially available formulation "Harness" (trade mark), an emulsifiable concentrate containing 960g of acetochlor per kilogram, and which also contains the safening agent flurazole, metolachlor (used as the commercially available formulation "Duelor" (trade mark), an emulsifiable concentrate emulsifiable concentrate containing 960g of metolachlor per kilogram), alachlor (used as the commercially available formulation "Lasso" (trade mark), an emulsifiable concentrate containing 480g of alachlor per kilogram) and dimethenamid (used as the commercially available formulation "Frontiere" (trade mark), a flowable containing 900g/l active ingerident) were dissolved in water and sprayed at a volume rate of 187 litres/hectare on various test plots (10 square meters in area) either alone or in mixtures. The soil was a clay-loam, with a pH of 7, the experiments being conducted in June in Volga, Brookings, U.S.A. The various weed and crop species were drill sown and the various compositions were applied on the same day after drilling. Three replicates were performed and the efficacy of the various mixtures were determined by visual assessment of the percentage phytotoxicity in comparison with an untreated control. Assessment was made about 26 days after treatment. In the Tables which follow the dose is expressed in grammes per hectare and the figures in brackets represent the expected results according to the Colby formula.

SMILES: CS(=O)(=O)c1cc(C(F)(F)F)ccc1C(=O)c1cnoc1C1CC1 [Compound A, 5-cyclopropyl-4-(2-methylsulphonyl-4-trifluoromethyl)benzoylisoxazole]
- percent reduction in plant growth (Echinochloa crus-galli; A 1 g/ha alone, Table B2): 12.5%
- percent reduction in plant growth (Echinochloa crus-galli; A 1 g/ha alone, Table D2): 11.25%
- percent reduction in plant growth (Echinochloa crus-galli; A 2 g/ha alone, Table B2): 6.25%
- percent reduction in plant growth (Echinochloa crus-galli; A 2 g/ha alone, Table C2): 3.75%
- percent reduction in plant growth (Echinochloa crus-galli; A 2 g/ha alone, Table D2): 7.5%
- percent reduction in plant growth (Echinochloa crus-galli; A 4 g/ha alone, Table B2): 1.25%
- percent reduction in plant growth (Echinochloa crus-galli; A 4 g/ha alone, Table C2): 2.5%
- percent reduction in plant growth (Echinochloa crus-galli; A 4 g/ha alone, Table D2): 15%
- percent reduction in plant growth (Echinochloa crus-galli; A 8 g/ha alone, Table B2): 61.25%
- percent reduction in plant growth (Echinochloa crus-galli; A 8 g/ha alone, Table C2): 32.5%
- percent reduction in plant growth (Echinochloa crus-galli; A 8 g/ha alone, Table D2): 15%
- percent reduction in plant growth (Echinochloa crus-galli; A 16 g/ha alone, Table B2): 71.25%
- percent reduction in plant growth (Echinochloa crus-galli; A 16 g/ha alone, Table C2): 60%
- percent reduction in plant growth (Echinochloa crus-galli; A 16 g/ha alone, Table D2): 62.5%
- percent reduction in plant growth (Echinochloa crus-galli; A 32 g/ha alone, Table B2): 75%
- percent reduction in plant growth (Echinochloa crus-galli; A 32 g/ha alone, Table C2): 90%
- percent reduction in plant growth (Echinochloa crus-galli; A 32 g/ha alone, Table D2): 86%
- percent reduction in plant growth (Echinochloa crus-galli; A 64 g/ha alone, Table B2): 93.5%
- percent reduction in plant growth (Echinochloa crus-galli; A 64 g/ha alone, Table C2): 97%
- percent reduction in plant growth (Echinochloa crus-galli; A 64 g/ha alone, Table D2): 87.5%
- percent reduction in plant growth (Echinochloa crus-galli; A 128 g/ha alone, Table B2): 93.75%
- percent reduction in plant growth (Echinochloa crus-galli; A 128 g/ha alone, Table C2): 99.75%
- percent reduction in plant growth (Echinochloa crus-galli; A 128 g/ha alone, Table D2): 99.5%
- percent reduction in plant growth (Echinochloa crus-galli; A 256 g/ha alone, Table D2): 92.5%
- percentage phytotoxicity (maize (Zea mays)): 0%
